Tests used:
Cytochrome P450 3A4 = Cytochrome P450 3A4 (Homo sapiens, UniProt P08684); test: Induction of CYP3A4 in human hepatocytes; type: ADME, cell-based, Hepatocyte
[1] = Plasma protein binding in cynomolgus monkey at 5 uM after 4 hrs by equilibrium dialysis technique; type: ADME, cell-free, Macaca fascicularis; conditions: read-out: PPB (converted)
Liver microsome [2] = test: Drug metabolism in human liver microsomes in presence of methoxyamine; type: ADME
[3] = Clearance in Sprague-Dawley rat at 1 mg/kg, po and 0.5 mg/kg, iv; type: ADME, organism-based; conditions: in vivo
[4] = Reversible inhibition of CYP in human liver microsomes by mass spectrophotometric analysis; type: ADME
[5] = Oral bioavailability in Sprague-Dawley rat at 1 mg/kg; type: ADME, organism-based; conditions: in vivo
Cytochrome P450 1A2 [6] = molecular target: T1, Cytochrome P450 1A2 (Homo sapiens, UniProt P05177); test: Induction of CYP1A2 in human hepatocytes; type: ADME, cell-based, Hepatocyte
T1 sequence (P05177 whole entry): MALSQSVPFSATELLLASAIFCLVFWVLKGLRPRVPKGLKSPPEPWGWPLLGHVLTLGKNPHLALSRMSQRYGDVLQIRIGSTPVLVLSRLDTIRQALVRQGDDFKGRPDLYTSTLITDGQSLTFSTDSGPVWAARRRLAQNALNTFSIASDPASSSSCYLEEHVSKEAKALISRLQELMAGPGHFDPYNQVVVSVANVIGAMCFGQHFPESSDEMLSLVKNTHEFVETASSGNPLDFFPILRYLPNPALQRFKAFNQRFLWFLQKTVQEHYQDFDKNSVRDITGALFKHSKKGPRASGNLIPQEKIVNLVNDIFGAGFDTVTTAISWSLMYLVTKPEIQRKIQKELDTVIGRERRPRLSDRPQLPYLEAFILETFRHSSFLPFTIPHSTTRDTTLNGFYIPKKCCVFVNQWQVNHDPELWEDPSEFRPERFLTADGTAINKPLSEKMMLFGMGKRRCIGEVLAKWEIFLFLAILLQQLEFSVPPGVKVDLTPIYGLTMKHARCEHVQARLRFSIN

[7] = Half life in cynomolgus monkey at 0.5 mg/kg, iv; type: ADME, organism-based, Macaca fascicularis; parameters: dose 0.5 mg/kg, route intravenous; conditions: in vivo
[8] = molecular target: T2, Leucine-rich repeat serine/threonine-protein kinase 2 (Homo sapiens, UniProt Q5S007); test: Inhibition of LRRK2 (unknown origin)
Rattus norvegicus = test: Unbound clearance in Sprague-Dawley rat at 1 mg/kg, po and 0.5 mg/kg, iv; type: ADME, organism-based; conditions: in vivo
[9] = Oral bioavailability in cynomolgus monkey at 1 mg/kg; type: ADME, organism-based, Macaca fascicularis; conditions: in vivo
[10] = Clearance in human hepatocytes at 1 uM by LC-MS/MS analysis; type: ADME, cell-based, Hepatocyte
Liver microsome [11] = test: Drug metabolism in human liver microsomes in presence of glutathione; type: ADME
Cytochrome P450 2B6 = molecular target: T3, Cytochrome P450 2B6 (Homo sapiens, UniProt P20813); test: Induction of CYP2B6 in human hepatocytes; type: ADME, cell-based, Hepatocyte
T3 sequence (P20813 whole entry): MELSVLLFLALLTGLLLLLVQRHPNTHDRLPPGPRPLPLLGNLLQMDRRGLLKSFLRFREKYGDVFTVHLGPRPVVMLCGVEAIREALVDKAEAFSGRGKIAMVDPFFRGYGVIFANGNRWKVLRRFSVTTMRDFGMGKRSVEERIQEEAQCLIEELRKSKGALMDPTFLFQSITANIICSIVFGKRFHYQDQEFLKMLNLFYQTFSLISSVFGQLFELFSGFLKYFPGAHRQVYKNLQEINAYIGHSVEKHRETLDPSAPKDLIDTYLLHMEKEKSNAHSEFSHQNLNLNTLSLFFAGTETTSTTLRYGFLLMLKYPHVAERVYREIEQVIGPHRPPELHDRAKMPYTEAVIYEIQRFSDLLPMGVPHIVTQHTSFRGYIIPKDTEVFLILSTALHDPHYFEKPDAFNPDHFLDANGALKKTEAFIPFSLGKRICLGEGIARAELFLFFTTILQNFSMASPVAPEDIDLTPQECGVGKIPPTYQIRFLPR

TAK1/TAB1 (Homo sapiens) = TAK1/TAB1 (Homo sapiens) (UniProt Q15750+O43318); test: Inhibition of TAK1/TAB1 (unknown origin) at 0.1 uM relative to control; type: protein-complex assay
[12] = molecular target: T2, Leucine-rich repeat serine/threonine-protein kinase 2; test: Inhibition of LRRK2 (unknown origin) phosphorylation by cell-based assay
[13] = Clearance in rat hepatocytes at 1 uM by LC-MS/MS analysis; type: ADME, cell-based, Hepatocyte
[14] = Clearance in cynomolgus monkey at 1 mg/kg, po and 0.5 mg/kg, iv; type: ADME, organism-based, Macaca fascicularis; conditions: in vivo
Cynomolgus monkey = test: Unbound clearance in cynomolgus monkey at 1 mg/kg, po and 0.5 mg/kg, iv; type: ADME, organism-based, Macaca fascicularis; conditions: in vivo
[15] = Ratio of unbound drug level in brain to plasma in Sprague-Dawley rat; type: ADME, organism-based
Mus musculus = test: In vivo inhibition of human LRRK2 G2019S Parkinson's disease mutant expressed in BAC mouse assessed as inhibition of autophosphorylation at Ser1292 in brain at 10 to 50 mg/kg, ip after 1 to 6 hrs; type: functional, organism-based; parameters: dose 10-50 mg/kg, route intraperitoneal
[16] = Time dependent inhibition of CYP in human liver microsomes by HPLC-MS analysis; type: ADME
Homo sapiens = species: Homo sapiens; test: Selectivity ratio of Ki for JAK2 (unknown origin) to Ki for LRRK2 (unknown origin)
MDR1 (P-gp, ABCB1) = MDR1 (P-gp, ABCB1) (Homo sapiens, UniProt P08183); test: Activity at human MDR1 transfected in MDCK cells assessed as efflux ratio of apparent permeability from basolateral to apical side over apical to basolateral side at 5 uM; type: ADME, cell-based
BCRP (ABCG2) = molecular target: T4, BCRP (ABCG2) (Homo sapiens, UniProt Q9UNQ0); test: Activity at BCRP transporter (unknown origin) transfected in MDCK cells assessed as efflux ratio of permeability; type: ADME, cell-based
T4 sequence (Q9UNQ0 whole entry): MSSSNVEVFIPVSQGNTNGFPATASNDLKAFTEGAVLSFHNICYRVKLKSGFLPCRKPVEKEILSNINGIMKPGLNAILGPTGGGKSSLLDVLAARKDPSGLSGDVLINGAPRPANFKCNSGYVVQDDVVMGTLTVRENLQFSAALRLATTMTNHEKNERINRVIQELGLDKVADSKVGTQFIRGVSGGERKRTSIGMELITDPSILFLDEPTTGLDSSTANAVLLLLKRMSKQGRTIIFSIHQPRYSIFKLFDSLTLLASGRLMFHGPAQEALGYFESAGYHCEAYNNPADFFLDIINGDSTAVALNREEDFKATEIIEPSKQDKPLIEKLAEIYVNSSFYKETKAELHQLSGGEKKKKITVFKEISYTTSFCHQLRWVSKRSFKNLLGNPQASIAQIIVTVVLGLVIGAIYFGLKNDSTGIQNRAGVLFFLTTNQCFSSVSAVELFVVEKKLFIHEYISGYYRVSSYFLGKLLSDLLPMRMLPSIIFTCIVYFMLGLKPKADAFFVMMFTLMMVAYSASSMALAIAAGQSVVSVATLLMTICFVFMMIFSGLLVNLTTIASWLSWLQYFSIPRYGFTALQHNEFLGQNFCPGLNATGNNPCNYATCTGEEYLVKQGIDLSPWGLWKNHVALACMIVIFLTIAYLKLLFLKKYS

[17] = Thermodynamic solubility of the crystalline form of compound at pH 7.4; type: physicochemical; conditions: read-out: Therm_solubility
[18] = Half life in Sprague-Dawley rat at 0.5 mg/kg, iv; type: ADME, organism-based; parameters: dose 0.5 mg/kg, route intravenous; conditions: in vivo
[19] = Volume of distribution in Sprague-Dawley rat at 0.5 mg/kg, iv; type: ADME, organism-based; parameters: dose 0.5 mg/kg, route intravenous; conditions: in vivo
Cytochrome P450 1A2 [20] = molecular target: T1, Cytochrome P450 1A2; test: Time dependent inhibition of CYP1A2 in human liver microsomes using phenacetin as substrate by HPLC-MS analysis; type: ADME
[21] = Half life in Sprague-Dawley rat at 1 mg/kg, po and 0.5 mg/kg, iv; type: ADME, organism-based; conditions: in vivo
[22] = Volume of distribution in Sprague-Dawley rat at 1 mg/kg, po and 0.5 mg/kg, iv; type: ADME, organism-based; conditions: in vivo

T2 sequence (Q5S007 whole entry): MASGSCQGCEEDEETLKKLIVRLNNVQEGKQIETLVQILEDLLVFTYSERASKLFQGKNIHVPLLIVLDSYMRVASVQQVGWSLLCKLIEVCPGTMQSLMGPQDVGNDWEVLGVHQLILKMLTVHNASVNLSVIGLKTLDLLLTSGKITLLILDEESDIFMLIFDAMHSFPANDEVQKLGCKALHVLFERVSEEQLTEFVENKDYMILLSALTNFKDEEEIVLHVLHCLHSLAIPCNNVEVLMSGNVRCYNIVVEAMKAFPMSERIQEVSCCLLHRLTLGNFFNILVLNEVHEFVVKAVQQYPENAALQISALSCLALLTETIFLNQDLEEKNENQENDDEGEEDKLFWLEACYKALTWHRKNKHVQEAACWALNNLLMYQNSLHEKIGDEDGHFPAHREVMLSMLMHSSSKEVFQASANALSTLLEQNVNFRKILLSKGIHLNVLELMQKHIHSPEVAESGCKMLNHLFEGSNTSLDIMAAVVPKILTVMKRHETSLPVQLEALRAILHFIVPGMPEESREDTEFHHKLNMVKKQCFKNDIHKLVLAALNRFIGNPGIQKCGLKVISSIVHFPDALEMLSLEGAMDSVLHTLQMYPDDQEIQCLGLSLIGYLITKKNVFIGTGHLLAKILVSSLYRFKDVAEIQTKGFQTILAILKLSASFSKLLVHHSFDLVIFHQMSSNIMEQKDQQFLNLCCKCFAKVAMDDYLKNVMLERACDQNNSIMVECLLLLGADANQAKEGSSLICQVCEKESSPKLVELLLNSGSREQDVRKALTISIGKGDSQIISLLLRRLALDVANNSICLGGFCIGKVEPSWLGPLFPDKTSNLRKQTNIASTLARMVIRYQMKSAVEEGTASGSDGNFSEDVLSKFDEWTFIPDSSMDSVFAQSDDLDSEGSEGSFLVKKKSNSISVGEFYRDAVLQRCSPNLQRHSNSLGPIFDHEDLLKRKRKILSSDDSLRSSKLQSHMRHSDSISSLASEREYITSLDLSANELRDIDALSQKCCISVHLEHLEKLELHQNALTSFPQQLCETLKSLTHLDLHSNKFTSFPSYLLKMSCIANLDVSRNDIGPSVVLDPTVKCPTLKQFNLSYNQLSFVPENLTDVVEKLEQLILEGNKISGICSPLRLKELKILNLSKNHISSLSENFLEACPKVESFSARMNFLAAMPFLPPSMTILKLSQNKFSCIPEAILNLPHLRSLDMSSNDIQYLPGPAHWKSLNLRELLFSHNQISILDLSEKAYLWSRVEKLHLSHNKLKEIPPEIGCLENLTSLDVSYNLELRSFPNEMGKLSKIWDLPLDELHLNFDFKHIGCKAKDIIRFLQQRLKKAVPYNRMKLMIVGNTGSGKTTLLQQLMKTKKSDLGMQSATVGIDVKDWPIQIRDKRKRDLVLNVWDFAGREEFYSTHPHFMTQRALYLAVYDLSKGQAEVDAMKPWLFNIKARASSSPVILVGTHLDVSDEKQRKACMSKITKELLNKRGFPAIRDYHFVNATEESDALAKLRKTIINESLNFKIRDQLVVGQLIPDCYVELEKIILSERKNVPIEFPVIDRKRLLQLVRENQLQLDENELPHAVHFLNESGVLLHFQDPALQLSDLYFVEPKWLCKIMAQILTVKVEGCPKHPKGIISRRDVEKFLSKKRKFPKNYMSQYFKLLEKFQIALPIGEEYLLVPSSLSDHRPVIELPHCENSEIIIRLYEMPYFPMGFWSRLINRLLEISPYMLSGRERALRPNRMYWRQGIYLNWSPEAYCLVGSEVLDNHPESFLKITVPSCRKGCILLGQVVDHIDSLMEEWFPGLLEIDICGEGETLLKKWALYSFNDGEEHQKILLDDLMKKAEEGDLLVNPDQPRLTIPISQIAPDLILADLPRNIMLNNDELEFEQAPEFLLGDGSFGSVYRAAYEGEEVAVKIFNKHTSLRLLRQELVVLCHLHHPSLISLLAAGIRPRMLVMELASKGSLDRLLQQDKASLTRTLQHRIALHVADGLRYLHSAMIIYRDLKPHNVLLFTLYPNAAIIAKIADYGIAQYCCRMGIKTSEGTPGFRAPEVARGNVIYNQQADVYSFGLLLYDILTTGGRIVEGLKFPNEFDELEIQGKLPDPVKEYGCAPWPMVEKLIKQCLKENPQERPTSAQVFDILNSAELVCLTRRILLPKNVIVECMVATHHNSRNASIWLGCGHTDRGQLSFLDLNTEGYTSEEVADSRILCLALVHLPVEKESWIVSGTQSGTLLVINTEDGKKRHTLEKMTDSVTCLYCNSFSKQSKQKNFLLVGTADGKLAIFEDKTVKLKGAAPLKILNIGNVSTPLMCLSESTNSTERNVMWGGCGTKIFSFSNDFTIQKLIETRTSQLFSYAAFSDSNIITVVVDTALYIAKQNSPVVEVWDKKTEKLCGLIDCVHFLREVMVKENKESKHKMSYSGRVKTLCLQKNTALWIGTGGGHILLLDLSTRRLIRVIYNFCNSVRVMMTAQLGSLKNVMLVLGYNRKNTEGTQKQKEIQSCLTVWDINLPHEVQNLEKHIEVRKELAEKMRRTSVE
MDR1 (P-gp, ABCB1), sequence (P08183 whole entry): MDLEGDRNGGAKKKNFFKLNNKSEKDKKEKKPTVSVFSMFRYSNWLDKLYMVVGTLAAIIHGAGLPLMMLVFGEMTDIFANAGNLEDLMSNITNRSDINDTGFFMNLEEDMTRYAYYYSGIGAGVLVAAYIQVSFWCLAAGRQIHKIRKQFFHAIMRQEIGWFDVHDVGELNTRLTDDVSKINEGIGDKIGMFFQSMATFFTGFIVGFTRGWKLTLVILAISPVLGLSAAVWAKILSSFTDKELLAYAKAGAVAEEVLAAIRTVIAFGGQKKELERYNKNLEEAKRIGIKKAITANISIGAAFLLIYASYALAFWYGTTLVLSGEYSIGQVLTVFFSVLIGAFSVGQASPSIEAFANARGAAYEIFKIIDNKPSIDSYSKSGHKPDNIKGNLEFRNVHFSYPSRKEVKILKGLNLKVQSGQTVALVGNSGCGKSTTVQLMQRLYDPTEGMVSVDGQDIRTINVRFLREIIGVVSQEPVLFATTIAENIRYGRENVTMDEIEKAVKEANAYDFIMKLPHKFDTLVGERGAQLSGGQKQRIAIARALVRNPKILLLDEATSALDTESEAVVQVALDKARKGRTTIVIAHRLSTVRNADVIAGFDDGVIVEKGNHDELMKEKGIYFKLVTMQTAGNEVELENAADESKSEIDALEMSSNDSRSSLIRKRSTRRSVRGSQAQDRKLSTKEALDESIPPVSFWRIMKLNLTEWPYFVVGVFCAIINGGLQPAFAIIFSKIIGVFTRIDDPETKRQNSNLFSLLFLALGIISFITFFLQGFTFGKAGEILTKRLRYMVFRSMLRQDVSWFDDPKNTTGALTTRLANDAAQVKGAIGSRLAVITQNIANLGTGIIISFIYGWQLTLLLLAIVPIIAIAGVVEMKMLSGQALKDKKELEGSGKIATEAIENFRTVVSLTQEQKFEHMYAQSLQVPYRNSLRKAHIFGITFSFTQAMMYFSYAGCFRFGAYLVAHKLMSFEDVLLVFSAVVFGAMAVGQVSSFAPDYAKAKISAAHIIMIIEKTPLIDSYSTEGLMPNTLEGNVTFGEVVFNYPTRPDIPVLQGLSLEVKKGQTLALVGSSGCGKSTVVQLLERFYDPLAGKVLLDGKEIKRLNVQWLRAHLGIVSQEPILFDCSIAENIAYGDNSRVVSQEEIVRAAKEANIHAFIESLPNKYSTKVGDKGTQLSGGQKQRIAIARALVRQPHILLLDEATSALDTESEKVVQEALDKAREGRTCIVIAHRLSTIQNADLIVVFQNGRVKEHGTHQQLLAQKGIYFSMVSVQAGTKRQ
Cytochrome P450 3A4, sequence (P08684 whole entry): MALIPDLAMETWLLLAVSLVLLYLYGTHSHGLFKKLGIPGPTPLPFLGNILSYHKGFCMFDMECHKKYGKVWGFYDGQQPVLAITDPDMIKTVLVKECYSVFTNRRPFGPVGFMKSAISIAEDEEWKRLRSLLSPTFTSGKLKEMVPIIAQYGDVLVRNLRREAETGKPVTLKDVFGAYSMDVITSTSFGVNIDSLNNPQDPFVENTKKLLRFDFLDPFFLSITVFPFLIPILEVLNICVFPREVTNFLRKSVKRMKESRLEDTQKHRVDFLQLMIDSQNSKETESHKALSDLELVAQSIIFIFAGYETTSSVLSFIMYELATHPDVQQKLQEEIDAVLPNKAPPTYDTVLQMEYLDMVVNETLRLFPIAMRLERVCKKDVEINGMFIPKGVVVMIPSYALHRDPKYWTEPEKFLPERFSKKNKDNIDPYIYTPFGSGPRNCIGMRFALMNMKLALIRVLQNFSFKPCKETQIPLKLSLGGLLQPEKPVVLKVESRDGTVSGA

Row | SMILES | clearance [3] | Ki [8] | CL free (Rattus norvegicus) | CLhep predicted at 1 µM [10] | IC50 [12] | CLhep predicted at 1 µM [13] | Kp uu [15] | Ratio Ki (Homo sapiens) | efflux ratio at 5 µM (MDR1 (P-gp, ABCB1)) | further results
1 | CNc1nc(Nc2cnn([C@H]3CCN(C4COC4)C[C@@H]3F)c2Cl)ncc1C(F)(F)F (relative stereo) | 26 mL/min/kg | 2 nM | 261 mL/min/kg | 1 mL/min/kg | 18.7 nM | 21 mL/min/kg | 0.51 |  |  | Activity (Cytochrome P450 3A4): Not Active; fraction unbound at 4 h, 5 µM [1]: 0.179; Drug metabolism (Liver microsome [2]): Not Active; inhibition (INH) [4]: Not Active; bioavailability [5]: 90%; Activity (Cytochrome P450 1A2 [6]): Not Active; half-life [7]: 4 h; bioavailability [9]: 74%; Drug metabolism (Liver microsome [11]): Not Active; Activity (Cytochrome P450 2B6): Not Active; inhibition (TAK1/TAB1 (Homo sapiens)): 54%; clearance [14]: 7.8 mL/min/kg; CL free (Cynomolgus monkey): 43 mL/min/kg; IC50 (Mus musculus): 20 nM; inhibition (Mus musculus): Dose-dependent effect; inhibition (INH) [16]: Not Active
2 | CNc1nc(Nc2cn([C@H]3CCN(C4COC4)C[C@H]3F)nc2C)ncc1C(F)(F)F (relative stereo) | 16 mL/min/kg | 2 nM | 42 mL/min/kg | 1 mL/min/kg | 14 nM |  | 0.08 | > 150 | 2.2 | efflux ratio (BCRP (ABCG2)): 4.2
3 | CNc1nc(Nc2cn(C(C)(C)C(=O)NC(C)C)nc2C)ncc1C(F)(F)F |  |  |  |  | 140 nM |  |  | > 150 | 1.3 | 
4 | CCNc1nc(Nc2cc(F)c(C(=O)N3CCOCC3)cc2OC)ncc1C(F)(F)F |  |  |  |  |  |  |  | > 150 |  | solubility thermodynamic [17]: < 2 µg/mL
5 | CNc1nc(Nc2cnn3c2C(C)O[C@@H](C)C3)ncc1C(F)(F)F (some centres undefined) |  | 6 nM |  | 8 mL/min/kg | 49 nM |  |  | > 150 | 1 | 
6 | CCNC(=O)C(C)(C)n1cc(Nc2ncc(C(F)(F)F)c(NC)n2)c(C)n1 |  |  |  |  | 99 nM |  |  | > 150 | 4 | 
7 | CNc1nc(Nc2cn(C3(C#N)CC3)nc2C)ncc1C(F)(F)F | 55 mL/min/kg | 3 nM | 213 mL/min/kg | 5 mL/min/kg | 30 nM | 14 mL/min/kg | 0.4 | > 150 | 1.4 | 
8 | CNc1nc(Nc2cnn3c2COCC3)ncc1C(F)(F)F |  | 3 nM |  |  | 18 nM |  |  | > 150 | 1 | 
9 | CNc1nc(Nc2cn(C(C)(C)C(=O)NCC(F)(F)F)nc2C)ncc1C(F)(F)F |  |  |  |  | 53 nM |  |  | > 150 | 1.5 | 
10 | CNc1nc(Nc2cnn(C3CCOCC3)c2C)ncc1C(F)(F)F | 74 mL/min/kg | 2 nM | 232 mL/min/kg | 5 mL/min/kg | 11 nM | 35 mL/min/kg | 0.3 | > 150 | 2.3 | half-life [18]: 0.17 h; Vd [19]: 1.1 L/kg
11 | CNc1nc(Nc2cnn(C3COC3)c2C)ncc1C(F)(F)F | 56 mL/min/kg | 2 nM | 115 mL/min/kg | 2 mL/min/kg | 29 nM | 17 mL/min/kg | 0.3 | > 150 | 1.4 | inhibition (INH) [4]: Not Active; IC50 (Cytochrome P450 1A2 [20]): 2000 nM
12 | CNc1nc(Nc2cnn(C(C)(C)C#N)c2C)ncc1C(F)(F)F | 65 mL/min/kg | 1 nM | 423 mL/min/kg | 4 mL/min/kg | 5 nM | 33 mL/min/kg | 0.4 | > 150 | 1 | 
13 | CCNc1nc(Nc2cc(C(C)(C)C#N)nn2C)ncc1C(F)(F)F | 27 mL/min/kg |  | 201 mL/min/kg | 5 mL/min/kg |  | 18 mL/min/kg | 0.5 | > 150 | 1.5 | 
14 | CNc1nc(Nc2cnn(C3CCN(C4COC4)CC3)c2C)ncc1C(F)(F)F | 22 mL/min/kg | 4 nM | 45 mL/min/kg | 3 mL/min/kg | 20 nM | 9 mL/min/kg | 0.06 | > 150 | 5.1 | half-life [21]: 2.1 h; Vd [22]: 1.7 L/kg; inhibition (INH) [4]: Not Active; inhibition (INH) [16]: Not Active
15 | CNc1nc(Nc2cnn(C3(C#N)CC3)c2Cl)ncc1C(F)(F)F | 22 mL/min/kg | 2 nM | 431 mL/min/kg | 9 mL/min/kg | 22 nM | 30 mL/min/kg | 0.6 | > 150 | 1.3 | 
16 | CNc1nc(Nc2cnn3c2C(C)OCC3)ncc1C(F)(F)F (centres undefined) | 43 mL/min/kg | 3 nM | 105 mL/min/kg | 3 mL/min/kg | 42 nM | 19 mL/min/kg |  | > 150 | 1.3 | 
17 | CNC(=O)C(C)(C)n1cc(Nc2ncc(C(F)(F)F)c(NC)n2)c(C)n1 | 12 mL/min/kg |  | 27 mL/min/kg |  | 36 nM |  |  | > 150 | 5.5 | 
18 | CNc1nc(Nc2cnn3c2COC(C)(C)C3)ncc1C(F)(F)F |  | 0.9 nM |  | 12 mL/min/kg | 20 nM |  |  | > 150 | 0.7 | 

Source: ChEMBL document CHEMBL3120096 (J Med Chem, 2014)
